Measurements as given in patent US6495559B2, “NPY Y5 receptor antagonists” (Merck & Co., Inc., priority 1998, dated 2002).

Columns and labels:
bPP-induced food intake = experiment: Bovine pancreatic polypeptide (bPP)-induced food intake in Sprague-Dawley rats; assay type: in vivo; details: 1 hour prior to ICV bPP
Experimental: Male Sprague-Dawley rats aged 7 weeks (Charles River, Japan) were maintained under the controlled temperature (23±3° C.), humidity (55±15%) and light-dark cycle (7:00-19:00 light on). Rats were housed individually with ad libitum access food (CE-2, Clea Japan) and tap water. Rats were anesthetized with sodium pentobarbital (50 mg/kg, i.p., Dainabot, Japan). A permanent stainless steel guide cannula for intracerebroventricular (ICV) injection (21 gauge, 10 mm long) was stereotaxically implanted into the right lateral ventricle. The stereotaxic coordinates used were as follows: 0.9 mm posterior and 1.2 mm lateral to the bregma and 1.5 mm ventral to the brain surface. Animals were allowed at least 6-day recovery postoperatively before the start of feeding experiment. The day before the experiment, they were handled and underwent mock injection, and nocturnal food intake was measured. Rats which ate more than 15 g during the night before the experiment were used for the following experiment. Test compounds were suspended in 0.5% methylcellulose and orally administered by gavage. Administration of test compounds usually began at 10:00. Dosing volume was 5 ml/kg. […] Two hour post-injection food intake was measured for each rat. […]

rats = experiment: Observation of abnormal behavior after oral dosing in rats; assay type: in vivo; details: 100 mg/kg p.o., during 24 hour after dosing
Experimental: Compound 100 was orally administered 1 hour prior to the ICV-injection of bPP in satiated male Sprague-Dawley rats. […] Thus, Compound 100 has a potent in vivo Y5 antagonistic activity without causing any abnormal behavior.

mice = experiment: Observation of abnormal behavior after oral dosing in mice; assay type: in vivo; details: 100 mg/kg p.o., during 24 hour after dosing

| melting point [°C] | SMILES | also measured |
| --- | --- | --- |
| 233 to 236 | CC(=O)c1ccc(NC(=O)N2CCC3(CC2)CN(S(N)(=O)=O)c2ccccc23)cc1 [Compound 300, N-(4-acetylphenyl)-1-sulfamoylspiro[indoline-3,4′-piperidine]-1′-carboxamide] |  |
| > 300 | NS(=O)(=O)N1CC2(CCN(C(=O)Nc3nnc(-c4ccccc4)s3)CC2)c2ccccc21 [Compound 400, N-(5-phenyl-1,3,4-thiadiazol-2-yl)-1-sulfamoylspiro[indoline-3,4′-piperidine]-1′-carboxamide] |  |
| 226 to 227 | NS(=O)(=O)N1CC2(CCN(C(=O)Nc3cc(-c4ccccc4)no3)CC2)c2ccccc21 [Compound 402, N-(3-phenylisoxazol-5-yl)-1-sulfamoylspiro[indoline-3,4′-piperidine]-1′-carboxamide] |  |
| 260 | CC(=O)N1CC2(CCN(C(=O)Nc3nnc(-c4ccccc4)s3)CC2)c2ccccc21 [Compound 600, 1-Acetyl-N-(5-phenyl-1,3,4-thiadiazol-2-yl)spiro[indoline-3,4′-piperidine]-1′-carboxamide] |  |
| 267 | CN(C)C(=O)N1CC2(CCN(C(=O)Nc3nnc(-c4ccccc4)s3)CC2)c2ccccc21 [Compound 800, 1-Dimethylcarbamoyl-N-(5-phenyl-1,3,4-thiadiazol-2-yl)spiro[indoline-3,4′-piperidine]-1′-carboxamide] |  |
| 211 to 212 | CS(=O)(=O)N1CC2(CCN(C(=O)Nc3cc(-c4ccccc4)no3)CC2)c2cccnc21 [Compound 1402, 7-aza-N-(3-phenyl-5-isoxazolyl)-1-methylsulfonylspiro[indoline-3,4′-piperidine]-1′-carboxamide] |  |

Further lines, the molecule ahead of its results:

| SMILES | melting point [°C] | also measured |
| --- | --- | --- |
| CS(=O)(=O)N1CC2(CCN(C(=O)Nc3cnc(-c4ccccc4)cn3)CC2)c2ccccc21 [Compound 100, 1 -Methanesulfonyl-N-(5-phenyl-2-pyrazinyl)spiro[indoline-3,4′-piperidine]-1′-carboxamide] |  | bPP-induced food intake (bPP-induced food intake; 1, 3, 10 and 30 mg/kg orally, satiated male rats, two hour post-injection food intake): suppressed bPP-induced food intake in a dose-dependent manner; minimum effective dose (bPP-induced food intake; oral, suppression of bPP-induced food intake): 3 mg/kg; abnormal behavior (rats): did not cause any abnormal behavior; abnormal behavior (mice): did not cause any abnormal behavior |
| CCS(=O)(=O)N1CC2(CCN(C(=O)Nc3cnc(-c4nncs4)cn3)CC2)c2ccccc21 [Compound 152, 1-ethylsulfonyl-N-[5-(1,3,4-thiadiazol-2-yl)-2-pyrazinyl]spiro[indoline-3,4′-piperidine]-1′-carboxamide] | 193 to 194 |  |
| CCS(=O)(=O)N1CC2(CCN(C(=O)Nc3cnc(-c4ncns4)cn3)CC2)c2ccccc21 [Compound 153, 1-ethylsulfonyl-N-[5-(1,2,4-thiadiazol-5-yl)-2-pyrazinyl]spiro[indoline-3,4′-piperidine]-1′-carboxamide] | 211 to 214 |  |
| CCS(=O)(=O)N1CC2(CCN(C(=O)Nc3cnc(-c4nncs4)cn3)CC2)c2ccc(F)cc21 [Compound 154, 1-ethylsulfonyl-6-fluoro-N-[5-(1,3,4-thiadiazol-2-yl)-2-pyrazinyl]spiro[indoline-3,4′-piperidine]-1′-carboxamide] | 228 to 230 |  |
| CCS(=O)(=O)N1CC2(CCN(C(=O)Nc3cnc(-c4nncs4)cn3)CC2)c2cc(F)ccc21 [Compound 155, 1-ethylsulfonyl-5-fluoro-N-[5-(1,3,4-thiadiazol-2-yl)-2-pyrazinyl]spiro[indoline-3,4′-piperidine]-1′-carboxamide] | 223 to 224 |  |
| CS(=O)(=O)N1CC2(CCN(C(=O)Nc3cnc(-c4ccccc4)cn3)CC2)c2cc(F)ccc21 [Compound 202, 5-fluoro-1-methylsulfonyl-N-(5-phenyl-2-pyrazinyl)spiro[indoline-3,4′-piperidine]-1′-carboxamide] | 215.5 to 215.8 |  |
| CCS(=O)(=O)N1CC2(CCN(C(=O)Nc3cn(-c4cccc(F)c4)cn3)CC2)c2ccccc21 [Compound 203, 1-ethylsulfonyl-N-[1-(3-fluorophenyl)imidazol-4-yl]spiro[indoline-3,4′-piperidine]-1′-carboxamide] | 200 to 202 |  |
| CCS(=O)(=O)N1CC2(CCN(C(=O)Nc3cn(-c4ccccc4F)cn3)CC2)c2ccccc21 [Compound 204, 1-ethylsulfonyl-N-[1-(2-fluorophenyl)imidazol-4-yl]spiro[indoline-3,4′-piperidine]-1′-carboxamide] | 180 to 181.5 |  |
